# Patent publication US20260130395A1, “Water Dispersible Botanical Compositions” (Aquila Black Limited, priority 2021, published 2026)
# Experiment: Stability of cannabinoid compounds and Vitamin E components in Beverage 1 (AB White) by LCMSMS
# Format: physicochemical
# Conditions: for Stability of Plant-Derived Cannabinoid Compounds in AB White, 8° C.: AB White stored at 8° C.; for Stability of Plant-Derived Cannabinoid Compounds in AB White, 21-25° C.: AB White stored at 21-25° C.
structure (smiles),measurement,setting,value
"CCCCCc1cc(O)c2c(c1)OC1(C)CCC3C1C2C3(C)C (centres unmarked) [CBL, cannabicyclol]","Stability of Plant-Derived Cannabinoid Compounds in AB White, 8° C.",0 days,0.550 µg/mL
same,"Stability of Plant-Derived Cannabinoid Compounds in AB White, 8° C.",1 days,0.541 µg/mL
same,"Stability of Plant-Derived Cannabinoid Compounds in AB White, 8° C.",2 days,0.542 µg/mL
same,"Stability of Plant-Derived Cannabinoid Compounds in AB White, 8° C.",3 days,0.553 µg/mL
same,"Stability of Plant-Derived Cannabinoid Compounds in AB White, 8° C.",5 days,0.552 µg/mL
same,"Stability of Plant-Derived Cannabinoid Compounds in AB White, 8° C.",8 days,0.537 µg/mL
same,"Stability of Plant-Derived Cannabinoid Compounds in AB White, 8° C.",9 days,0.535 µg/mL
same,"Stability of Plant-Derived Cannabinoid Compounds in AB White, 8° C.",10 days,0.544 µg/mL
same,"Stability of Plant-Derived Cannabinoid Compounds in AB White, 8° C.",11 days,0.544 µg/mL
same,"Stability of Plant-Derived Cannabinoid Compounds in AB White, 8° C.",12 days,0.553 µg/mL
same,"Stability of Plant-Derived Cannabinoid Compounds in AB White, 8° C.",15 days,0.534 µg/mL
same,"Stability of Plant-Derived Cannabinoid Compounds in AB White, 8° C.",16 days,0.546 µg/mL
same,"Stability of Plant-Derived Cannabinoid Compounds in AB White, 8° C.",17 days,0.540 µg/mL
same,"Stability of Plant-Derived Cannabinoid Compounds in AB White, 8° C.",18 days,0.536 µg/mL
same,"Stability of Plant-Derived Cannabinoid Compounds in AB White, 8° C.",19 days,0.537 µg/mL
same,"Stability of Plant-Derived Cannabinoid Compounds in AB White, 8° C.",22 days,0.555 µg/mL
same,"Stability of Plant-Derived Cannabinoid Compounds in AB White, 8° C.",23 days,0.545 µg/mL
same,"Stability of Plant-Derived Cannabinoid Compounds in AB White, 8° C.",24 days,0.548 µg/mL
same,"Stability of Plant-Derived Cannabinoid Compounds in AB White, 8° C.",25 days,0.540 µg/mL
same,"Stability of Plant-Derived Cannabinoid Compounds in AB White, 8° C.",26 days,0.534 µg/mL
same,"Stability of Plant-Derived Cannabinoid Compounds in AB White, 8° C.",29 days,0.547 µg/mL
same,"Stability of Plant-Derived Cannabinoid Compounds in AB White, 8° C.",30 days,0.544 µg/mL
same,"Stability of Plant-Derived Cannabinoid Compounds in AB White, 8° C.",60 days,0.543 µg/mL
same,"Stability of Plant-Derived Cannabinoid Compounds in AB White, 8° C.",90 days,0.527 µg/mL
same,"Stability of Plant-Derived Cannabinoid Compounds in AB White, 8° C.",120 days,0.534 µg/mL
same,"Stability of Plant-Derived Cannabinoid Compounds in AB White, 8° C.",150 days,0.540 µg/mL
same,"Stability of Plant-Derived Cannabinoid Compounds in AB White, 8° C.",180 days,0.542 µg/mL
same,"Stability of Plant-Derived Cannabinoid Compounds in AB White, 8° C.",210 days,0.534 µg/mL
same,"Stability of Plant-Derived Cannabinoid Compounds in AB White, 8° C.",240 days,0.535 µg/mL
same,"Stability of Plant-Derived Cannabinoid Compounds in AB White, 8° C.",270 days,0.539 µg/mL
same,"Stability of Plant-Derived Cannabinoid Compounds in AB White, 8° C.",300 days,0.526 µg/mL
same,"Stability of Plant-Derived Cannabinoid Compounds in AB White, 8° C.",330 days,0.543 µg/mL
same,"Stability of Plant-Derived Cannabinoid Compounds in AB White, 8° C.",360 days,0.533 µg/mL
same,"Stability of Plant-Derived Cannabinoid Compounds in AB White, 8° C.",390 days,0.535 µg/mL
same,"Stability of Plant-Derived Cannabinoid Compounds in AB White, 8° C.",420 days,0.526 µg/mL
same,"Stability of Plant-Derived Cannabinoid Compounds in AB White, 8° C.",450 days,0.532 µg/mL
same,"Stability of Plant-Derived Cannabinoid Compounds in AB White, 8° C.",480 days,0.521 µg/mL
same,"Stability of Plant-Derived Cannabinoid Compounds in AB White, 8° C.",510 days,0.514 µg/mL
same,"Stability of Plant-Derived Cannabinoid Compounds in AB White, 8° C.",540 days,0.514 µg/mL
same,"Stability of Plant-Derived Cannabinoid Compounds in AB White, 8° C.",570 days,0.503 µg/mL
same,"Stability of Plant-Derived Cannabinoid Compounds in AB White, 21-25° C.",0 days,0.550 µg/mL
same,"Stability of Plant-Derived Cannabinoid Compounds in AB White, 21-25° C.",1 days,0.539 µg/mL
same,"Stability of Plant-Derived Cannabinoid Compounds in AB White, 21-25° C.",2 days,0.540 µg/mL
same,"Stability of Plant-Derived Cannabinoid Compounds in AB White, 21-25° C.",3 days,0.543 µg/mL
same,"Stability of Plant-Derived Cannabinoid Compounds in AB White, 21-25° C.",5 days,0.530 µg/mL
same,"Stability of Plant-Derived Cannabinoid Compounds in AB White, 21-25° C.",8 days,0.542 µg/mL
same,"Stability of Plant-Derived Cannabinoid Compounds in AB White, 21-25° C.",9 days,0.535 µg/mL
same,"Stability of Plant-Derived Cannabinoid Compounds in AB White, 21-25° C.",10 days,0.546 µg/mL
same,"Stability of Plant-Derived Cannabinoid Compounds in AB White, 21-25° C.",11 days,0.552 µg/mL
same,"Stability of Plant-Derived Cannabinoid Compounds in AB White, 21-25° C.",12 days,0.529 µg/mL
same,"Stability of Plant-Derived Cannabinoid Compounds in AB White, 21-25° C.",15 days,0.548 µg/mL
same,"Stability of Plant-Derived Cannabinoid Compounds in AB White, 21-25° C.",16 days,0.537 µg/mL
same,"Stability of Plant-Derived Cannabinoid Compounds in AB White, 21-25° C.",17 days,0.554 µg/mL
same,"Stability of Plant-Derived Cannabinoid Compounds in AB White, 21-25° C.",18 days,0.554 µg/mL
same,"Stability of Plant-Derived Cannabinoid Compounds in AB White, 21-25° C.",19 days,0.552 µg/mL
same,"Stability of Plant-Derived Cannabinoid Compounds in AB White, 21-25° C.",22 days,0.547 µg/mL
same,"Stability of Plant-Derived Cannabinoid Compounds in AB White, 21-25° C.",23 days,0.530 µg/mL
same,"Stability of Plant-Derived Cannabinoid Compounds in AB White, 21-25° C.",24 days,0.546 µg/mL
same,"Stability of Plant-Derived Cannabinoid Compounds in AB White, 21-25° C.",25 days,0.532 µg/mL
same,"Stability of Plant-Derived Cannabinoid Compounds in AB White, 21-25° C.",26 days,0.549 µg/mL
same,"Stability of Plant-Derived Cannabinoid Compounds in AB White, 21-25° C.",29 days,0.552 µg/mL
same,"Stability of Plant-Derived Cannabinoid Compounds in AB White, 21-25° C.",30 days,0.543 µg/mL
same,"Stability of Plant-Derived Cannabinoid Compounds in AB White, 21-25° C.",60 days,0.544 µg/mL
same,"Stability of Plant-Derived Cannabinoid Compounds in AB White, 21-25° C.",90 days,0.541 µg/mL
same,"Stability of Plant-Derived Cannabinoid Compounds in AB White, 21-25° C.",120 days,0.516 µg/mL
same,"Stability of Plant-Derived Cannabinoid Compounds in AB White, 21-25° C.",150 days,0.517 µg/mL
same,"Stability of Plant-Derived Cannabinoid Compounds in AB White, 21-25° C.",180 days,0.527 µg/mL
same,"Stability of Plant-Derived Cannabinoid Compounds in AB White, 21-25° C.",210 days,0.514 µg/mL
same,"Stability of Plant-Derived Cannabinoid Compounds in AB White, 21-25° C.",240 days,0.515 µg/mL
same,"Stability of Plant-Derived Cannabinoid Compounds in AB White, 21-25° C.",270 days,0.535 µg/mL
same,"Stability of Plant-Derived Cannabinoid Compounds in AB White, 21-25° C.",300 days,0.532 µg/mL
same,"Stability of Plant-Derived Cannabinoid Compounds in AB White, 21-25° C.",330 days,0.526 µg/mL
same,"Stability of Plant-Derived Cannabinoid Compounds in AB White, 21-25° C.",360 days,0.526 µg/mL
same,"Stability of Plant-Derived Cannabinoid Compounds in AB White, 21-25° C.",390 days,0.518 µg/mL
same,"Stability of Plant-Derived Cannabinoid Compounds in AB White, 21-25° C.",420 days,0.523 µg/mL
same,"Stability of Plant-Derived Cannabinoid Compounds in AB White, 21-25° C.",450 days,0.521 µg/mL
same,"Stability of Plant-Derived Cannabinoid Compounds in AB White, 21-25° C.",480 days,0.510 µg/mL
same,"Stability of Plant-Derived Cannabinoid Compounds in AB White, 21-25° C.",510 days,0.503 µg/mL
same,"Stability of Plant-Derived Cannabinoid Compounds in AB White, 21-25° C.",540 days,0.510 µg/mL
same,"Stability of Plant-Derived Cannabinoid Compounds in AB White, 21-25° C.",570 days,0.505 µg/mL
